# Assay results: patent US20070208001A1, “Modulators of 11- beta hydroxyl steroid dehydrogenase type 1, pharmaceutical compositions thereof, and methods of using the same” (priority 2006, published 2007)
# Columns and labels:
# [1] = molecular target: T1, human 11βHSD1 (Homo sapiens, UniProt P28845); assay: Enzymatic assay of 11βHSD1 (Scintillation Proximity Assay, clarified lysates); type: biochemical; settings: SPA, HEK-293 lysate expressing full-length human 11βHSD1, 25 nM 3H-cortisone, 400 μM NADPH, 37° C., one hour
# T1 construct: made in house; host or cells: HEK-293 transient transfectants; clarified lysate, not purified
# T1 sequence (P28845 whole entry): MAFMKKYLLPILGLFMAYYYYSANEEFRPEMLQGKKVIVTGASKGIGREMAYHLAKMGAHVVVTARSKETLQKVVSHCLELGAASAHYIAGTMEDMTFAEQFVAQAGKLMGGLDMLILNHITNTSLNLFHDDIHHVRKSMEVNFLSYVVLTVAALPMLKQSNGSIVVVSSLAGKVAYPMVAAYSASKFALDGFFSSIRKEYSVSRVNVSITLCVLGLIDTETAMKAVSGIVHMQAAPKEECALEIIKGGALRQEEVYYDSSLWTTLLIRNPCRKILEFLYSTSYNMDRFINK
# Description: Enzymatic assay of 11βHSD1
# All in vitro assays were performed with clarified lysates as the source of 11βHSD1 activity. HEK-293 transient transfectants expressing an epitope-tagged version of full-length human 11βHSD1 were harvested by centrifugation. Roughly 2×10^7 cells were resuspended in 40 mL of lysis buffer (25 mM Tris-HCl, pH 7.5, 0.1 M NaCl, 1 mM MgCl2 and 250 mM sucrose) and lysed in a microfluidizer. Lysates were clarified by centrifugation and the supernatants were aliquoted and frozen.
# Inhibition of 11βHSD1 by test compounds was assessed in vitro by a Scintillation Proximity Assay (SPA). Dry test compounds were dissolved at 5 mM in DMSO. These were diluted in DMSO to suitable concentrations for the SPA assay. 0.8 μL of 2-fold serial dilutions of compounds were dotted on 384 well plates in DMSO such that 3 logs of compound concentration were covered. 20 μL of clarified lysate was added to each well. Reactions were initiated by addition of 20 μL of substrate-cofactor mix in assay buffer (25 mM Tris-HCl, pH 7.5, 0.1 M NaCl, 1 mM MgCl2) to final concentrations of 400 μM NADPH, 25 nM ^3H-cortisone and 0.007% Triton X-100. Plates were incubated at 37° C. for one hour. […] Quenched plates were incubated for a minimum of 30 minutes at RT prior to reading on a Topcount scintillation counter. […]
# [2] = test system: healthy volunteers; settings: after seven days of carbenoxolone treatment; cited from earlier work
SMILES,IC50 [1] [µM],IOP was reduced by [2] [%]
"CC(=O)N1CCC2(CC(C3(c4ccc(Cl)cc4)CC3)=NO2)C1 (centres unmarked) [Example 1, 7-Acetyl-3-[1-(4-chlorophenyl)cyclopropyl]-1-oxa-2,7-diazaspiro[4.4]non-2-ene]",< 5,
CC1(C)[C@@H](OC(=O)CCC(=O)O)CC[C@]2(C)[C@H]3C(=O)C=C4[C@@H]5C[C@@](C)(C(=O)O)CC[C@]5(C)CC[C@@]4(C)[C@]3(C)CC[C@@H]12 [carbenoxolone],,18
